Assay results reported in patent US20100120763A1, “IMIDAZO[5,1-C][1,2,4]BENZOTRIAZINE DERIVATIVES AS INHIBITORS OF PHOSPHODIESTERASES” (priority 2008, published 2010).

Legend:
PDE2A = molecular target: T1, PDE2A (Homo sapiens, UniProt O00408); test: Inhibition of recombinant PDE2A (expressed in baculovirus/SF21-cells), [3H]-cAMP SPA; format: biochemical
T1 construct: made in house; host or cells: SF21 insect cells (baculovirus)
Outline: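 Membrane fraction of baculovirus/SF21-expressed PDE2A was incubated 30 min at 37° C in Tris-HCl/MgCl2 pH 7.4 with 0.5 μM [3H]-cAMP and 1000 nM cGMP as activator. Product was detected by SPA scintillation. IC50 used a Hill-plot 2-parameter model.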

PDE10A = molecular target: T2, PDE10A (Homo sapiens, UniProt Q9Y233); test: Inhibition of recombinant PDE10A (baculovirus/SF21 system), [3H]-cAMP SPA; format: biochemical; conditions: recombinant PDE10A1, cytosolic; 0.1 μM [3H]-cAMP, 37° C., 30 minutes; read-out: PDE10A IC50
T2 construct: made in house; host or cells: SF21 insect cells (baculovirus)
T2 sequence (Q9Y233 1-779 isoform Q9Y233-1): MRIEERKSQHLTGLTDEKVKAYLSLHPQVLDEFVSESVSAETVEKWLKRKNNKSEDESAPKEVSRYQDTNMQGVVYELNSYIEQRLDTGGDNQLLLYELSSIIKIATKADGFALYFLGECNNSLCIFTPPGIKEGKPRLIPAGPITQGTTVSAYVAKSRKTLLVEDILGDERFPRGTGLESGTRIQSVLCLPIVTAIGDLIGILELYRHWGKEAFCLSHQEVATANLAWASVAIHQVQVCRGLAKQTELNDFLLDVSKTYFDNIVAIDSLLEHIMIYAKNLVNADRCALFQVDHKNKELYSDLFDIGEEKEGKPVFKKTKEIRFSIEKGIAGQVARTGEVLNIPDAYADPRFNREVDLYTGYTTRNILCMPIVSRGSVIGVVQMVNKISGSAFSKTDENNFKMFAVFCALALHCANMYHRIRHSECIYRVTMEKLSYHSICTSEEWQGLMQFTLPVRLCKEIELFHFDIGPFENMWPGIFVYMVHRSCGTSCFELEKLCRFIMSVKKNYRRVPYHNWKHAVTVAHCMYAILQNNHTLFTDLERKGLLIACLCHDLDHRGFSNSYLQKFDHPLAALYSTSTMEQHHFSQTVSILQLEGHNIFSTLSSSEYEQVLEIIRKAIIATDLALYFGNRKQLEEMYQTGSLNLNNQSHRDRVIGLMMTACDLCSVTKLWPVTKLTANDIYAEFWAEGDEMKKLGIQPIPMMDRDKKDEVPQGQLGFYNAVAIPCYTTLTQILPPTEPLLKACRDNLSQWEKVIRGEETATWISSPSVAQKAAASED

T1 sequence (O00408 whole entry): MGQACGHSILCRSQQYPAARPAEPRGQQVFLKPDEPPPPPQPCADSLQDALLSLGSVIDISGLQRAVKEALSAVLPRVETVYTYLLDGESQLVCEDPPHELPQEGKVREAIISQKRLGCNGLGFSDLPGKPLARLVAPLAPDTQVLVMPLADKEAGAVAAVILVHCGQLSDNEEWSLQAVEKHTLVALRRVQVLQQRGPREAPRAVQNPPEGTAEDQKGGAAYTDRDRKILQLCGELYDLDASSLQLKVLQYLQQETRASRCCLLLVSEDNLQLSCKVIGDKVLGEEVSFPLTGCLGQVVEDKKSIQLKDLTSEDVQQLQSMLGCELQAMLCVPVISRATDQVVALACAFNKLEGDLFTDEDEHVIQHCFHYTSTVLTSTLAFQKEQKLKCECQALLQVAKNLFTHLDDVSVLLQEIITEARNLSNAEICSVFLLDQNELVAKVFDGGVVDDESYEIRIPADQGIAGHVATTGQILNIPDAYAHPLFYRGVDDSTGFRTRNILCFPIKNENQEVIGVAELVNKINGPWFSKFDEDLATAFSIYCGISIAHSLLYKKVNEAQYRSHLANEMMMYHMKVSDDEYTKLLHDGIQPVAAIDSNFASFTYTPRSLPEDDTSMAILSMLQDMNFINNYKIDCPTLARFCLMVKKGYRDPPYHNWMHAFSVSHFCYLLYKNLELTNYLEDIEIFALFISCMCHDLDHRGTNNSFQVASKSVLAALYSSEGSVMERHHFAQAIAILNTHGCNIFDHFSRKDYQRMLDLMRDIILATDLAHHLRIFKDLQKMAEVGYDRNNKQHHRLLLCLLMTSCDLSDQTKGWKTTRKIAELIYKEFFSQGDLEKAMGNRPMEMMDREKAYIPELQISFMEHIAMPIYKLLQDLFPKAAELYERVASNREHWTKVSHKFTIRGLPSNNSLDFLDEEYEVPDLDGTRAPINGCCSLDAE

melting point [°C]	IC50 (PDE2A) [nM]	IC50 (PDE10A) [nM]	Compound
187 to 190	3760	3900	CCc1nc(C)c2nnc3ccc(F)cc3n12 [Example 3, 1-ethyl-8-fluoro-3-methyl-imidazo[5,1-c][1,2,4]benzotriazine]
249 to 251	> 1000	3120	Cc1nc(-c2ccccc2C(N)=O)n2c1nnc1ccc(Cl)cc12 [Example 41, 2-(8-chloro-3-methylbenzo[e]imidazo[5,1-c][1,2,4]triazin-1-yl)benzamide]
242 to 245	6.39	9.77	Cc1nc(-c2ccccc2Cl)n2c1nnc1ccc(N3CCOCC3)cc12 [Example 184, 1-(2-Chloro-phenyl)-3-methyl-8-morpholin-4-yl-imidazo[5,1-c][1,2,4]benzotriazine]

The next lines start with the compound.

Compound	melting point [°C]	IC50 (PDE2A) [nM]	IC50 (PDE10A) [nM]
Cc1nc(-c2cccc(Cl)c2Cl)n2c1nnc1ccc(-c3cccc(Cl)c3Cl)cc12 [Example 173, 1,8-Bis-(2,3-dichloro-phenyl)-3-methyl-imidazo[5,1-c][1,2,4]benzotriazine]	207 to 210	61.5	57.6
Cc1ncn2c1nnc1ccc(Cl)cc12 [Example 42, 8-chloro-3-methylbenzo[e]imidazo[5,1-c][1,2,4]triazine]	210	> 10000	> 10000
COc1ccc(Cl)c(-c2nc(C)c3nnc4ccc(F)cc4n23)c1 [Example 18, 1-(2-chloro-5-methoxyphenyl)-8-fluoro-3-methylbenzo[e]imidazo[5,1-c][1,2,4]triazine]	190 to 192	20.1	183
COc1ccc2c(c1)nnc1c(C)ncn12 [Example 35, 7-methoxy-3-methylbenzo[e]imidazo[5,1-c][1,2,4]triazine]	212 to 215	> 5000	> 5000
